From patent US7851623B2, “Chemical process” (AstraZeneca AB, priority 2006, dated 2010)

What was measured:
Calu-6 tumour xenograft = experiment: in vivo solid tumour model (WO 00/47212), Calu-6 tumour xenograft growth; settings: once-daily oral, 28 days
HUVEC [1] = experiment: HUVEC assay, basal endothelial cell proliferation; type: cell-based; settings: Homo sapiens, basal (unstimulated) proliferation, read-out: IC50 for inhibition of basal endothelial cell proliferation
HUVEC [2] = experiment: HUVEC assay, VEGF-stimulated endothelial cell proliferation; type: cell-based; settings: Homo sapiens, read-out: IC50 for inhibition of VEGF-stimulated endothelial cell proliferation
tumour models = settings: once-daily oral administration; cited from earlier work

## COc1cc2c(Oc3ccc4[nH]c(C)cc4c3F)ncnc2cc1OCCCN1CCCC1 [AZD2171, 4-[(4-fluoro-2-methyl-1H-indol-5-yl)oxy]-6-methoxy-7-[3-(pyrrolidin-1-yl)propoxy]quinazoline]
Calu-6 tumour xenograft; 1.5 mg/kg/day, P<0.01 one-tailed t test
  inhibition of growth of Calu-6 tumour xenograft: 49%
Calu-6 tumour xenograft; 3 mg/kg/day, P<0.0001 one-tailed t test
  inhibition of growth of Calu-6 tumour xenograft: 69%
Calu-6 tumour xenograft; 6 mg/kg/day, P<0.0001 one-tailed t test
  inhibition of growth of Calu-6 tumour xenograft: 91%
HUVEC [1]
  IC50: > 500 nM
HUVEC [2]
  IC50: 0.4 ± 0.2 nM
Tumour models
  anti-tumour activity in a range of models: broad-spectrum anti-tumour activity
